According to US20030162777A1, “Novel N-acylated heterocycles” (Recordati S.A., priority 2001, published 2003):

Assays:
[1] = molecular target: T1, human 5HT1A-serotonergic receptor (Homo sapiens, UniProt P08908); experiment: Radioligand binding to recombinant 5-HT1A receptors; settings: [3H]8-OH-DPAT 1 nM, membranes of HeLa cells with human 5-HT1A receptor; Ki from IC50 by Cheng & Prusoff; read-out: Binding affinity for 5HT1A receptors, Ki
T1 construct: expressed in transfected cells; host or cells: HeLa (human cell line), stably transfected; cell membranes used
T1 sequence (P08908 1-422): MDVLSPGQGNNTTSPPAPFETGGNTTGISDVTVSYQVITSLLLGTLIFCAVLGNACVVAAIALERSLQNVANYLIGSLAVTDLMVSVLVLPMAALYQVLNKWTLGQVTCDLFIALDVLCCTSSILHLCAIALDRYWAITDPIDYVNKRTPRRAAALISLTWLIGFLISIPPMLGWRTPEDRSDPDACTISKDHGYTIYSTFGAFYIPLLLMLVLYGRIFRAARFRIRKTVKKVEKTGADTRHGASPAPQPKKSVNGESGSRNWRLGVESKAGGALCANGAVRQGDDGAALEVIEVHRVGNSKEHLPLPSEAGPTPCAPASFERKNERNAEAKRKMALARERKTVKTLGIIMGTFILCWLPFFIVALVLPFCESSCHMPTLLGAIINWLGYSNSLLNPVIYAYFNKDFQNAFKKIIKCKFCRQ
Outline: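 Displacement of 1 nM [3H]8-OH-DPAT (30 min, 30 °C, Tris-HCl pH 7.4 with MgCl2 and pargyline) from recombinant human 5-HT1A in transfected HeLa membranes, stopped by filtration. Specific binding defined against 10 μM 5-HT; IC50 by nonlinear fitting, then Ki by Cheng–Prusoff.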

[2] = molecular target: T2, 5-HT1A receptors (Rattus norvegicus, UniProt P19327); experiment: Inhibition of stereotypy (rhythmic forepaw treading) induced by 8-OH-DPAT in rats (post-synaptic antagonism); format: in vivo; settings: 1 mg/kg p.o.; for inhibition at 1 mg/kg: rat
T2 construct: from tissue; host or cells: whole animal: male Sprague-Dawley rats (post-synaptic 5-HT1A receptors)
T2 sequence (P19327 1-422): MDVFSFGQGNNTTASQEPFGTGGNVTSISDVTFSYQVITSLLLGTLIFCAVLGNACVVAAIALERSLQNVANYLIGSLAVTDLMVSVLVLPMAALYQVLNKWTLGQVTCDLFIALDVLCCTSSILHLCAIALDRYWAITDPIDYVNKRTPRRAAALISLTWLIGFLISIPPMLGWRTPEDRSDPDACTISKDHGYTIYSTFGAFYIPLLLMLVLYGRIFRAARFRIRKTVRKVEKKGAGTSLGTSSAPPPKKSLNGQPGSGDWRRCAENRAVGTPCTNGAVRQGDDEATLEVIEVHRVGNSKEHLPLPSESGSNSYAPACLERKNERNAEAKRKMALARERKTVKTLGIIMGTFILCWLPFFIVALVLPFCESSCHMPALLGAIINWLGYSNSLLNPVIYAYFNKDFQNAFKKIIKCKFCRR
Procedure: The inhibitory effect of 5-HT1A-receptor antagonists on stereotyped forepaw treading induced in rats by subcutaneous injection of 8-OH-DPAT was evaluated by the method of Tricklebank (Tricklebanket al., Eur. J. Pharmacol., 117: 15, 1985) with minor modifications as described below.
Male Sprague-Dawley rats [Crl: CD° (SD) BR] weighing 150-175 g from Charles River Italia were used. The animals were housed with free access to food and water and maintained on a forced 12-hour-light/12-hour-dark cycle at 22-24° C. of temperature. On the day of the experiment, the rats were placed singly in clear plastic containers, 10-15 minutes before administration of the vehicle or compounds to be tested. For evaluation of antagonistic activity after oral administration, the compounds were administered 0.5, 1 and 4 hours before induction of stereotypy by 8-OH-DPAT (1 mg/kg subcutaneously). Observation sessions lasted 30 seconds and began 3 minutes after 8-OH-DPAT treatment and were repeated every 3 minutes over a period of 15 minutes.
The appearance of the symptom induced by postsynaptic stimulation of 5-HT1A receptors was noted, and the intensity was scored using an intensity scale in which: 0=absent, 1=equivocal, 2=present and 3=intense. Behavioural scores for treated rats were accumulated throughout the observation time (5 observation periods) and expressed as mean values of 4 rats/dose. Change in mean values of treated animals in comparison with control (vehicle) group, expressed as per-cent inhibition, was used in order to quantify the antagonistic activity.

## O=C(C1CCCCC1)N1c2ccccc2CCC1CN1CCN(c2cccc3[nH]ccc23)CC1 (racemic) [Example 1, (±)1-(1-cyclohexanecarbonyl-1,2,3,4-tetrahydroquinoline-2-ylmethyl)-4-(4-indolyl)piperazine]
[1]
  Ki: 3.3 nM
[2]; rats
  post-synaptic 5-HT1A-receptor antagonist activity (in words): significant and long-lasting post-synaptic 5-HT1A-receptor antagonist activity
[2]; 0.5 h before 8-OH-DPAT (1 mg/kg s.c.)
  inhibition at 1 mg/kg: 91%
[2]; 1 h before 8-OH-DPAT (1 mg/kg s.c.)
  inhibition at 1 mg/kg: 91%
[2]; 4 h before 8-OH-DPAT (1 mg/kg s.c.)
  inhibition at 1 mg/kg: 96%
